Results reported in patent US7396847B2, “Oxazolidinone and/or isoxazoline as antibacterial agents” (AstraZeneca AB, priority 2001, dated 2008).
In brackets after ≈: the same amount, converted by molar mass.

Legend:
[1] = test system: Streptococcus pneumoniae; test: MIC, agar-dilution on agar with 5% defibrinated horse blood, Streptococci; type: cell-based; conditions: 10^4 CFU/spot, 37° C., 5% carbon dioxide, 48 hours
Protocol: (§1) The following results were obtained on a standard in-vitro test system. The activity is described in terms of the minimum inhibitory concentration (MIC) determined by the agar-dilution technique with an inoculum size of 10^4 CFU/spot. Typically, compounds are active in the range 0.01 to 256 μg/ml.
(§2) Streptococci and enterococci were tested on agar supplemented with 5% defibrinated horse blood, an inoculum of 10^4 CFU/spot and an incubation temperature of 37° C. in an atmosphere of 5% carbon dioxide for 48 hours—blood is required for the growth of some of the test organisms. Fastidious Gram negative organisms were tested in Mueller-Hinton broth, supplemented with hemin and NAD, grown aerobically for 24 hours at 37° C., and with an innoculum of 5×10^4 CFU/well.

[2] = test system: Streptococcus pyogenes; test: as above; type: cell-based; conditions: 10^4 CFU/spot, 37° C., 5% carbon dioxide, 48 hours
Protocol: as §1, §2

[3] = test system: Staphylococcus aureus MRQR (methicillin resistant and quinolone resistant); test: MIC, agar-dilution, Staphylococci; type: cell-based; conditions: inoculum 10^4 CFU/spot, 37° C., 24 hours
Protocol: as §1
(§3) Staphylococci were tested on agar, using an inoculum of 10^4 CFU/spot and an incubation temperature of 37° C. for 24 hours—standard test conditions for the expression of methicillin resistance.

[4] = test system: Staphylococcus aureus MSQS (methicillin sensitive and quinolone sensitive); test: MIC, agar-dilution, Staphylococci; type: cell-based; conditions: inoculum 10^4 CFU/spot, 37° C., 24 hours
Protocol: as §1, §3

[5] = test system: Haemophilus influenzae; test: MIC, fastidious Gram negative organisms in Mueller-Hinton broth; type: cell-based; conditions: Mueller-Hinton broth with hemin and NAD, aerobic, 24 hours, 37° C., 5×10^4 CFU/well
Protocol: as §1, §2

[6] = test system: Moraxella catarrhalis; test: as above; type: cell-based; conditions: Mueller-Hinton broth with hemin and NAD, aerobic, 24 hours, 37° C., 5×10^4 CFU/well
Protocol: as §1, §2

| MIC [1] [µg/mL] | MIC [2] [µg/mL] | MIC [3] [µg/mL] | MIC [4] [µg/mL] | MIC [5] [µg/mL] | MIC [6] [µg/mL] | melting point [°C] | Structure (SMILES) |
| --- | --- | --- | --- | --- | --- | --- | --- |
| 0.06 (≈ 0.119 µM) | 0.13 (≈ 0.259 µM) | 0.5 (≈ 0.995 µM) | 0.25 (≈ 0.498 µM) | 2 (≈ 3.98 µM) | 0.5 (≈ 0.995 µM) |  | CC(=O)NC[C@H]1CN(c2ccc(-c3ccc(N4C[C@H](CNC(C)=O)OC4=O)cc3F)c(F)c2)C(=O)O1 [Example 1, (5S,5′S)-N-(3-{4′-[5-(Acetylamino-methyl)-2-oxo-oxazolidin-3-yl]-2,2′-difluoro-biphenyl-4-yl}-2-oxo-oxazolidin-5-ylmethyl)-acetamide] |
|  |  |  |  |  |  | 257 to 260 | CC(=O)NC[C@H]1CN(c2ccc(-c3ccc(N4C[C@H](CNC(C)=O)OC4=O)s3)s2)C(=O)O1 [Example 62, N-{[(5S)-3-(5′-{5-[(Acetylamino)methyl]-2-oxo-1,3-oxazolidin-3-yl}-2,2′-bithien-5-yl)-2-oxo-1,3-oxazolidin-5-yl]methyl}acetamide] |
